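GI50 is the concentration that inhibits growth by half. TGI is the concentration that stops growth completely.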
What was measured:
Experiment in all cases: inhibition of tumour cell growth, NCI panel, 384-well format
[1] = system: DU-145 prostate
[2] = system: UACC-62 melanoma
[3] = system: RXF 393 renal
[4] = system: A498 renal
[5] = system: MDA-MB-435 melanoma
[6] = system: NCI/ADR-RES ovarian
[7] = system: OVCAR-3 ovarian
[8] = system: UACC-257 melanoma
[9] = system: PC-3 prostate
[10] = system: OVCAR-4 ovarian
[11] = system: A549 NSCLC
[12] = system: TK-10 renal
[13] = system: NCI-H460 NSCLC
[14] = system: SF-539 CNS
[15] = system: NCI-H226 lung
[16] = system: NCI-H322M lung
[17] = system: SK-MEL-28 melanoma
[18] = system: HCC-2998 colon
[19] = system: T-47D breast
[20] = system: SF-295 CNS
[21] = system: COLO 205 colon
[22] = system: SW-620 colon
[23] = system: MDA-MB-231 breast
[24] = system: M14 melanoma
[25] = system: K-562 leukemia
[26] = system: BT-549 breast
[27] = system: SK-OV-3 ovarian
[28] = system: LOX IMVI melanoma
[29] = system: OVCAR-5 ovarian
[30] = system: OVCAR-8 ovarian
[31] = system: MDA-MB-468 breast
[32] = system: HCT-116 colon
[33] = system: SK-MEL-5 melanoma
[34] = system: SNB-19 CNS
[35] = system: 786-0 renal
[36] = system: SF-268 CNS
[37] = system: KM12 colon
[38] = system: MCF7 breast
[39] = system: CAKI-1 renal
[40] = system: HT29 colon
[41] = system: HCT-15 colon
[42] = system: SK-MEL-2 melanoma
[43] = system: NCI-H23 lung
[44] = system: NCI-H522 lung
[45] = system: MALME-3M melanoma
[46] = system: RPMI-8226 leukemia
[47] = system: ACHN renal

Q: How did the GI50 [1] turn out when NC(=O)c1cccc2cn(-c3ccc([C@@H]4CCCNC4)cc3)nc12 was run?
A: 4.89 µM

Q: What about the TGI [1] of the same molecule?
A: 16.1 µM

Q: What about the GI50 [2] of the same molecule?
A: 12 µM

Q: What about the TGI [2] of the same molecule?
A: 24.5 µM

Q: What about the GI50 [3] of the same molecule?
A: 16.7 µM

Q: What about the TGI [3] of the same molecule?
A: 30.5 µM

Q: And the GI50 [4]?
A: 16.7 µM

Q: And the TGI [4]?
A: 30.5 µM

Q: And the GI50 [5]?
A: 17.5 µM

Q: What about the TGI [5] of the same molecule?
A: 33.6 µM

Q: What about the GI50 [6] of the same molecule?
A: 13.5 µM

Q: And the TGI [6]?
A: 29.6 µM

Q: What about the GI50 [7] of the same molecule?
A: 18.3 µM

Q: What about the TGI [7] of the same molecule?
A: 33 µM

Q: What about the GI50 [8] of the same molecule?
A: 16.8 µM

Q: What about the TGI [8] of the same molecule?
A: 30.6 µM

Q: What about the GI50 [9] of the same molecule?
A: 15.4 µM

Q: And the TGI [9]?
A: 46.6 µM

Q: What about the GI50 [10] of the same molecule?
A: 25.2 µM

Q: What about the TGI [10] of the same molecule?
A: 44.5 µM

Q: What about the GI50 [11] of the same molecule?
A: 11.8 µM

Q: And the TGI [11]?
A: 24.5 µM

Q: What about the GI50 [12] of the same molecule?
A: 16.2 µM

Q: What about the TGI [12] of the same molecule?
A: 34 µM

Q: What about the GI50 [13] of the same molecule?
A: 3.06 µM

Q: And the TGI [13]?
A: 13.4 µM

Q: And the GI50 [14]?
A: 5.66 µM

Q: And the TGI [14]?
A: 18.2 µM

Q: What about the GI50 [15] of the same molecule?
A: 12.5 µM

Q: What about the TGI [15] of the same molecule?
A: 25.2 µM

Q: What about the GI50 [16] of the same molecule?
A: 18.2 µM

Q: What about the TGI [16] of the same molecule?
A: 34.1 µM

Q: And the GI50 [17]?
A: 16.2 µM

Q: What about the TGI [17] of the same molecule?
A: 29.9 µM

Q: And the GI50 [18]?
A: 14 µM

Q: What about the TGI [18] of the same molecule?
A: 27.1 µM

Q: What about the GI50 [19] of the same molecule?
A: 12.6 µM

Q: And the TGI [19]?
A: 26.2 µM

Q: And the GI50 [20]?
A: 2.64 µM

Q: What about the TGI [20] of the same molecule?
A: 7.79 µM

Q: What about the GI50 [21] of the same molecule?
A: 11 µM

Q: And the TGI [21]?
A: 23.2 µM

Q: What about the GI50 [22] of the same molecule?
A: 6.05 µM

Q: What about the TGI [22] of the same molecule?
A: 22.4 µM

Q: What about the GI50 [23] of the same molecule?
A: 14.7 µM

Q: What about the TGI [23] of the same molecule?
A: 29 µM

Q: And the GI50 [24]?
A: 4.68 µM

Q: And the TGI [24]?
A: 15.8 µM

Q: What about the GI50 [25] of the same molecule?
A: 10.1 µM

Q: And the TGI [25]?
A: 21.8 µM

Q: What about the GI50 [26] of the same molecule?
A: 9.95 µM

Q: And the TGI [26]?
A: 22 µM

Q: What about the GI50 [27] of the same molecule?
A: 11.7 µM

Q: What about the TGI [27] of the same molecule?
A: 28.8 µM

Q: What about the GI50 [28] of the same molecule?
A: 7.47 µM

Q: What about the TGI [28] of the same molecule?
A: 19.9 µM

Q: What about the GI50 [29] of the same molecule?
A: 24 µM

Q: What about the TGI [29] of the same molecule?
A: 59.6 µM

Q: And the GI50 [30]?
A: 7.24 µM

Q: What about the TGI [30] of the same molecule?
A: 20.6 µM

Q: What about the GI50 [31] of the same molecule?
A: 1.49 µM

Q: And the TGI [31]?
A: 4.17 µM

Q: What about the GI50 [32] of the same molecule?
A: 4.73 µM

Q: What about the TGI [32] of the same molecule?
A: 18.3 µM

Q: And the GI50 [33]?
A: 7.81 µM

Q: What about the TGI [33] of the same molecule?
A: 19.4 µM

Q: And the GI50 [34]?
A: 18.3 µM

Q: And the TGI [34]?
A: > 54.2 µM

Q: And the GI50 [35]?
A: 12.7 µM

Q: And the TGI [35]?
A: 26.3 µM

Q: What about the GI50 [36] of the same molecule?
A: 5.24 µM

Q: And the TGI [36]?
A: 20.1 µM

Q: And the GI50 [37]?
A: 14.7 µM

Q: What about the TGI [37] of the same molecule?
A: 28.9 µM

Q: And the GI50 [38]?
A: 6.48 µM

Q: And the TGI [38]?
A: 18.8 µM

Q: What about the GI50 [39] of the same molecule?
A: 11.1 µM

Q: What about the TGI [39] of the same molecule?
A: 23.3 µM

Q: And the GI50 [40]?
A: 13.4 µM

Q: What about the TGI [40] of the same molecule?
A: 26.6 µM

Q: And the GI50 [41]?
A: 11.9 µM

Q: What about the TGI [41] of the same molecule?
A: 24.8 µM

Q: And the GI50 [42]?
A: 23.2 µM

Q: What about the TGI [42] of the same molecule?
A: 37.9 µM

Q: And the GI50 [43]?
A: 5.93 µM

Q: What about the TGI [43] of the same molecule?
A: 19.6 µM

Q: What about the GI50 [44] of the same molecule?
A: 15.1 µM

Q: And the TGI [44]?
A: 29 µM

Q: What about the GI50 [45] of the same molecule?
A: 12.8 µM

Q: And the TGI [45]?
A: 25.6 µM

Q: And the GI50 [46]?
A: 9.26 µM

Q: And the TGI [46]?
A: 23.1 µM

Q: What about the GI50 [47] of the same molecule?
A: 9.72 µM

Q: And the TGI [47]?
A: 21.7 µM
